Key:
Assay in all cases: JNK Kinase Assay
[1] = target: Mitogen-activated protein kinase 10 (Homo sapiens, UniProt P53779)
Description: (§1) The binding results were confirmed by measuring IC50 for the inhibition of JNK kinase activity by using Z'-LYTE assay format.

[2] = target: Mitogen-activated protein kinase 9 (Homo sapiens, UniProt P45984)
Description: as §1

[3] = target: Mitogen-activated protein kinase 8 (Homo sapiens, UniProt P45983)
Chain of Mitogen-activated protein kinase 8 (P45983 whole entry): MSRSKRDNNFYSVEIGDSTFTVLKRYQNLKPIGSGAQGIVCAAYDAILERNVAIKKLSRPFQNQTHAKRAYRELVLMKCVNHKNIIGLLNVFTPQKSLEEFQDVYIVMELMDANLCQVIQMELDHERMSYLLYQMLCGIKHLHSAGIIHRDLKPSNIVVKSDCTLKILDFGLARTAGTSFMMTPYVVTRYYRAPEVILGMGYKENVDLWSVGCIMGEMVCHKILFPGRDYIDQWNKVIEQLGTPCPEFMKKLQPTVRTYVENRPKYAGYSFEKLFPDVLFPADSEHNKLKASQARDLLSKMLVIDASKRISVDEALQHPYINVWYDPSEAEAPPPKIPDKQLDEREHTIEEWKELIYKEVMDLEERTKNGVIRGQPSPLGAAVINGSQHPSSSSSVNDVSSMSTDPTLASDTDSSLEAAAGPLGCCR
Description: as §1

Chain of Mitogen-activated protein kinase 10 (P53779 whole entry): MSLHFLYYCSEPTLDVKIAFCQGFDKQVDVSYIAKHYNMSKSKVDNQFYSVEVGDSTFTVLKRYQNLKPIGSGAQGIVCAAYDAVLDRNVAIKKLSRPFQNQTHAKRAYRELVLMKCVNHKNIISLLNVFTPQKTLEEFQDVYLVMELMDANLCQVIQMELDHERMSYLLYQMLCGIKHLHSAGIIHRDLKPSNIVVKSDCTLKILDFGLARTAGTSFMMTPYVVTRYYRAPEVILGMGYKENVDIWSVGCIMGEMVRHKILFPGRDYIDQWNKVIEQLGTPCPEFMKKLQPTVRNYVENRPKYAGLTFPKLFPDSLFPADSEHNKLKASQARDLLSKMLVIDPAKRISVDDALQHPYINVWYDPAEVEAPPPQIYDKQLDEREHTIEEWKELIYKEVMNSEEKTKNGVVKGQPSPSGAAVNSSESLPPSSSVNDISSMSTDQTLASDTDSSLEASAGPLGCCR
Chain of Mitogen-activated protein kinase 9 (P45984 whole entry): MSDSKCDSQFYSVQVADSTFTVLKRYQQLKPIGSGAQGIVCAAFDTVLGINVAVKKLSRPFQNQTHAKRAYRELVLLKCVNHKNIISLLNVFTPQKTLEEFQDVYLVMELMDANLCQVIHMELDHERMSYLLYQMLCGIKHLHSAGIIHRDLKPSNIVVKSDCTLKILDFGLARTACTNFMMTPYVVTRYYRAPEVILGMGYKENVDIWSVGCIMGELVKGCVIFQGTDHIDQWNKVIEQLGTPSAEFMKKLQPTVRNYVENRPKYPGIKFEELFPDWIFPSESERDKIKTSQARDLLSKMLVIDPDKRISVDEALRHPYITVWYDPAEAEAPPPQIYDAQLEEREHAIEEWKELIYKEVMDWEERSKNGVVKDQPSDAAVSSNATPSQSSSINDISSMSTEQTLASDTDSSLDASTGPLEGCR

| Structure (SMILES) | IC50 [1] | IC50 [2] | IC50 [3] |
| --- | --- | --- | --- |
| CN(C)C/C=C/C(=O)Nc1cccc(C(=O)Nc2ccc(Nc3nccc(C(C#N)c4nc5ccccc5s4)n3)cc2)c1 (configuration not stated) [JNK-IN-12] | 11 nM | 11.3 nM | 13 nM |
| N#CC(c1ccnc(NCCc2cccnc2)n1)c1nc2ccccc2s1 (configuration not stated) [[3H-Benzothiazol-(2Z)-ylidene]-[2-(2-pyridin-3-yl-ethylamino)-pyrimidin-4-yl]-acetonitrile] |  | 220 nM | 150 nM |
| Cc1ccc(NC(=O)c2ccc(NC(=O)/C=C/CN(C)C)cc2)cc1Nc1nccc(-c2cccnc2)n1 [JNK-IN-1] | 7750 nM | 4230 nM | 7780 nM |
| O=C1c2ccccc2-c2n[nH]c3cccc1c23 | 190 nM |  |  |
| CN(C)C/C=C/C(=O)NCc1ccc(C(=O)Nc2cccc(Nc3nccc(-c4cccnc4)n3)c2)cc1 [JNK-IN-4] | 7220 nM | 5460 nM | 2390 nM |
| CN(C)C/C=C/C(=O)Nc1ccc(C(=O)Nc2cccc(Nc3nccc(-c4cccnc4)n3)c2)cc1 [JNK-IN-2] |  | 1140 nM | 809 nM |
| CN(C)C/C=C/C(=O)Nc1ccc(C(=O)Nc2cccc(Oc3nccc(-c4cccnc4)n3)c2)cc1 [JNK-IN-3] | > 10000 nM | > 10000 nM | > 10000 nM |

Reference: BindingDB's records for doi:10.1016/j.chembiol.2011.11.010 (Harvard Medical School, 2012)
